Literature values in patent US20230047788A1, “COMPOSITIONS COMPRISING 5-CHOLESTEN-3, 25-DIOL, 3-SULFATE (25HC3S) OR PHARMACEUTICALLY ACCEPTABLE SALT THEREOF AND AT LEAST ONE CYCLIC OLIGOSACCHARIDE” (Virginia Commonwealth University, priority 2016, published 2023).

Conditions: at 25°C; cited from earlier work

CC(O)COC[C@H]1O[C@@H]2O[C@H]3[C@H](O)[C@@H](O)[C@@H](O[C@H]4[C@H](O)[C@@H](O)[C@@H](O[C@H]5[C@H](O)[C@@H](O)[C@@H](O[C@H]6[C@H](O)[C@@H](O)[C@@H](O[C@H]7[C@H](O)[C@@H](O)[C@@H](O[C@H]8[C@H](O)[C@@H](O)[C@@H](O[C@H]1[C@H](O)[C@H]2O)O[C@@H]8COCC(C)O)O[C@@H]7COCC(C)O)O[C@@H]6COCC(C)O)O[C@@H]5COCC(C)O)O[C@@H]4COCC(C)O)O[C@@H]3COCC(C)O (stereo partly drawn) [HP-β-CD, hydroxypropyl β-cyclodextrin]
solubility in water: 50 % w/v
